From ChEMBL document CHEMBL1201862, “PubChem BioAssay data set” (2004)
The source made the active and inactive calls.

test system: not listed separately; test: growth suppression of PTEN-null colon cells, dose response, cell-based, HCT116 PTEN knockout (AID 1047); type: functional; details: not given;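 also: HCT116 colon tumor cells with PTEN knocked out; cells exposed to compound for 60 hours before readout; potency for loss of cell viability measured by luminescence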

SMILES	EC50
CCc1ccc(OCC(=O)N/N=C2\CC(=O)c3ccccc32)cc1	10.2 µM (active)
CCC(=O)OCCNc1cc(Sc2nccn2C)c2nonc2c1[N+](=O)[O-]	4.83 µM (active)
CCOC(=O)C1=C(c2ccc(OC)cc2)C(=O)c2ccccc2C1=O	3.57 µM (active)

molecular target: T1, Apoptotic protease-activating factor 1 (Homo sapiens, UniProt O14727); test: not given; type: functional; details: not given
T1 sequence (O14727 whole entry): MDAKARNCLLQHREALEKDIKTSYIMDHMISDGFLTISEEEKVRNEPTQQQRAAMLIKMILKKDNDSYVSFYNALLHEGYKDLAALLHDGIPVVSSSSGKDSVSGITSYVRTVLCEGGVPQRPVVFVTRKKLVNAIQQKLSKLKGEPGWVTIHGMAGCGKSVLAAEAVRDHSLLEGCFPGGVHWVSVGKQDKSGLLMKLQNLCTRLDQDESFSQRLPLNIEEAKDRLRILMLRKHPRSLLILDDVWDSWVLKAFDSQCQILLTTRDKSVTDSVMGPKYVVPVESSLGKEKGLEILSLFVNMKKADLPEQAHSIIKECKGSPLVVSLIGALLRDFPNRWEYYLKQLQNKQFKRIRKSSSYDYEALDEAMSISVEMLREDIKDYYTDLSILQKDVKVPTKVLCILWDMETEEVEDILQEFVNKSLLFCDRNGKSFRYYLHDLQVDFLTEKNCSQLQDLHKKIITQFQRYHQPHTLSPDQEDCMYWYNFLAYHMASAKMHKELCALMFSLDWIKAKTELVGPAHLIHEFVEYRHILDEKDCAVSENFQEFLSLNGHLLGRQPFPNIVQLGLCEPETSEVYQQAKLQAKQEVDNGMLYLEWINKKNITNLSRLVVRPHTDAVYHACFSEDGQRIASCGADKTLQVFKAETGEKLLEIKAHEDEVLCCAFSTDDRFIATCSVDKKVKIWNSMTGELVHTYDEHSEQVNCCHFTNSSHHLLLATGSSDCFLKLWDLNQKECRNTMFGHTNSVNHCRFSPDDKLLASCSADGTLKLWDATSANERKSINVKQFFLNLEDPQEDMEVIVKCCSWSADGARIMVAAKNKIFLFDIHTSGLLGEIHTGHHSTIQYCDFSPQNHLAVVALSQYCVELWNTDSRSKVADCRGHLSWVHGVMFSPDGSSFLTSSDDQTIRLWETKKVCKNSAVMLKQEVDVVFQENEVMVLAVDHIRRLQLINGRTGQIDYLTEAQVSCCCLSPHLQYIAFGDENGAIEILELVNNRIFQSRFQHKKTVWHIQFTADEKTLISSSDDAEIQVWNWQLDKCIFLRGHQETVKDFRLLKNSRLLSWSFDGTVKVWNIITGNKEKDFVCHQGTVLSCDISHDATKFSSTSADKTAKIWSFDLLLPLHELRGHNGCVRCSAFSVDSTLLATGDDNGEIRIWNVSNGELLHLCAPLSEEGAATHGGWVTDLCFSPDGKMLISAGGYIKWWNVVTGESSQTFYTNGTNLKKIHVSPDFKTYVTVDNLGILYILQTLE

SMILES	IC50
O=C1C(=O)c2ccccc2-c2ccccc21 [9,10-PHENANTHRENEQUINONE]	0.549 µM (active)
COCCCNC(=O)c1ccc2c3c(onc13)-c1ccccc1C2=O	15.7 µM (active)
CCc1ccc(OCC(=O)N/N=C2\CC(=O)c3ccccc32)cc1	18.5 µM (active)
CCCCn1c(NC(=O)c2ccccc2Cl)c(C#N)c2nc3ccccc3nc21	13.7 µM (active)
O=C1c2cc(F)ccc2-n2c1nc1ccccc1c2=O	3.8 µM (active)

test system: BJ; test: cytotoxicity toward Ras-transformed BJeLR fibroblasts, dose response, cell-based, alamar blue fluorescence, cherrypicked samples (AID 2631); type: functional; details: Homo sapiens;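 also: confirmatory dose-response assay in RAS-dependent BJ fibroblasts engineered with TERT, LT and ST, with cytotoxicity read by fluorescence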

SMILES	EC50
O=C1C(=O)c2ccccc2-c2ccccc21 [9,10-PHENANTHRENEQUINONE]	2.74 µM (inconclusive)
COCCCNC(=O)c1ccc2c3c(onc13)-c1ccccc1C2=O	4.11 µM (active)
CCOC(=O)C1=C(c2ccc(OC)cc2)C(=O)c2ccccc2C1=O	0.605 µM (active)

molecular target: T2, Microphthalmia-associated transcription factor (Homo sapiens, UniProt O75030); test: TRPM1 promoter luciferase signal decrease, dose response, MITF inhibitor project, cell-based, SK-MEL-5, cherry-picked, set 3 (AID 493073); type: functional; details: not given
T2 sequence (O75030 whole entry): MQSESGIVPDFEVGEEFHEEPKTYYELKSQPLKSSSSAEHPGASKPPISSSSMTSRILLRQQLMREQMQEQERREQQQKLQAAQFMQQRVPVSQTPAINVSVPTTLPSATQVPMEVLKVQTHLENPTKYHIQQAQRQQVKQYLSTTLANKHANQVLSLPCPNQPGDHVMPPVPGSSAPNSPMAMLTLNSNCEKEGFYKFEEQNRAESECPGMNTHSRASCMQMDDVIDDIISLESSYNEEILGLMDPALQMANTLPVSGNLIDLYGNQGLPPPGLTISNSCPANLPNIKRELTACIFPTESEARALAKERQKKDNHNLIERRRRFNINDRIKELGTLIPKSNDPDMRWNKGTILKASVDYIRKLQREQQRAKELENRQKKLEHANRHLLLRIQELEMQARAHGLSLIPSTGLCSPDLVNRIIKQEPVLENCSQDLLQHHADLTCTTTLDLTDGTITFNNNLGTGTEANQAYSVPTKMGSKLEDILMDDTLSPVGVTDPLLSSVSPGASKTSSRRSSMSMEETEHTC

SMILES	AC50
CCC(=O)OCCNc1cc(Sc2nccn2C)c2nonc2c1[N+](=O)[O-]	7.16 µM (active)
O=C1C=C(N(CCO)Cc2ccccc2)c2ccccc2C1=O	4.78 µM (active)
O=C1c2cc(F)ccc2-n2c1nc1ccccc1c2=O	1.05 µM (active)
